For this experiment, the target named is T1, Recombinant human liver GK (Homo sapiens, UniProt P35557).
T1 construct: made in house; host or cells: E. coli
T1 sequence (P35557 1-466 isoform P35557-2): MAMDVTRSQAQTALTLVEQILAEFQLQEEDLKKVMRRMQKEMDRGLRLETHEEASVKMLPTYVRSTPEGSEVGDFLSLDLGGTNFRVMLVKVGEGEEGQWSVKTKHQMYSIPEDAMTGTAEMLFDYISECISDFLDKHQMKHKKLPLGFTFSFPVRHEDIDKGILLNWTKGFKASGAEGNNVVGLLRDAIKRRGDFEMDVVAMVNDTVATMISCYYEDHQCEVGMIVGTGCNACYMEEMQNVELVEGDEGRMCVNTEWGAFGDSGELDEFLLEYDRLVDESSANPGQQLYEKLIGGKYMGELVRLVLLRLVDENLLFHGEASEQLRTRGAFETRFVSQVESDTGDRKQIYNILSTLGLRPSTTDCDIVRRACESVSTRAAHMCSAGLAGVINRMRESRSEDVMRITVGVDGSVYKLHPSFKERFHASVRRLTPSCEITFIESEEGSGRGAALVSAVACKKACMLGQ
The experiment is described as follows: Glucokinase activating action (G6PDH-coupled thio-NADH absorbance assay). It is filed as biochemical. Conditions: GK activating ability, final glucose concentration 2.5 mM, 30° C.; for Emax: OD of DMSO control defined as 100%. Here is the method:
Glucokinase activating ability was measured using the compound of the present invention.
Measurement of an excellent glucokinase activating action of the compounds represented by the aforementioned formula (I) is able to be carried out by a method mentioned in literatures such as Diabetes, vol. 45, pages 1671 to 1677 (1996) or a method similar thereto.
Recombinant human liver GK used in this assay was expressed in E. coli as FLAG fusion protein and purified by ANTIFLAG M2 AFFINITY GEL (Sigma).
The assay was conducted at 30° C. using a flat-bottom 96-well plate. An assay buffer (25 mM Hepes Buffer: pH=7.2; 2 mM MgCl2, 1 mM ATP, 0.5 mM TNAD and 1 mM dithiothreitol) (69 μl) was dispensed and 1 μl of a solution of a compound in DMSO or DMSO (as a control) was added. After that, 20 μl of an enzyme mixture (FLAG-GK, 20 U/ml G6PDH) cooled in ice was added, then 10 μl of 25 mM glucose which is a substrate was added and the reaction was started (final glucose concentration=2.5 mM).
After starting the reaction, an increase in absorbance at 405 nm was measured for 10 minutes every 30 seconds and the compound was evaluated using the increase during the first 5 minutes. FLAG-GK was added in such a manner that an increase in absorbance after 5 minutes in the presence of 1% of DMSO became between 0.05 and 0.1.
OD value in the case of DMSO control was defined as 100% and OD values in various concentrations of the compound to be evaluated were measured. From the OD values in various concentrations, Emax (%) and EC50 (μM) were calculated and used as indexes of GK activating ability of the compound.

Results on 3 molecules are retold here after patent US7687502B2, “Substituted quinazoline or pyridopyrimidine derivative” (Banyu Pharmaceutical Co., Ltd., priority 2004, dated 2010).

Molecules are shown by their SMILES.

Broadly, the Emax is the maximal effect, on the per cent scale that the assay sets. A word on the EC50: it is the concentration needed to bring the measured effect to its halfway point.

For the molecule `c1cnc2sc(Nc3ncnc4ccc(Sc5nnc[nH]5)cc34)nc2c1` [Example 1, [6-(4H-[1,2,4]Triazol-3-ylsulfanyl)-quinazolin-4-yl]-thiazolo[5,4-b]pyridin-2-yl-amine], the maximal effect (Emax) was found to be 1000% and the EC50 is 180 nM.

With `FCC(CF)Oc1ccc2ncnc(Nc3nc4cccnc4s3)c2c1` [Example 22, [6-(2-Fluoro-1-fluoromethyl-ethoxy)-quinazolin-4-yl]-thiazolo[5,4-b]pyridin-2-yl-amine], the Emax was 860% and the EC50 is 80 nM.

On to `c1cnc2sc(Nc3ncnc4ccc(Sc5nnc[nH]5)nc34)nc2c1` [Example 31], for which the concentration for a half-maximal effect (EC50) was found to be 90 nM.
